This is an account of results in patent US4555572A, “Pyrazolo[3,4,5-kl]acridine compositions and methods for their production and use” (Warner-Lambert Company, priority 1984, dated 1985).

Converted amounts (≈) assume the structure as drawn. Counter-ions that a name gives are not always drawn. Like-named read-outs stand apart in the source and are kept apart here.

In one assay the test system is L1210 cells. The assay can be described thus: PDC test, L1210 cell growth. Type of assay: cell-based, murine. The note with it: Mus musculus, read-out: PDC ID50. The method, then: (c) Another test protocol is the PDC test. L1210 cells, a murine leukemia cell line, were grown in RPMI 1640 supplemented with 10% fetal bovine serum and genamicin (50 μg/ml). Drug dilutions were prepared in the appropriate solvent and 20 μl of each dilution were added to 24-well Linbro tissue culture plates followed by the addition of 2.0 ml of cell suspension containing 3×10^4 cells per ml. Solvent and medium controls were included in each test. After incubation at 37° C. for three days in 5% CO2 in air, the contents of each well were removed and the cells counted in a ZBI Coulter counter. Per cent growth was calculated relative to the controls and the levels of drug activity were expressed as ID50 in terms of molarity (M).

The subject of the next assay is Alcaligenes viscolactis. Nature of the assay: in vitro antibacterial (ABMF) microdilution susceptibility test. In kind it is cell-based. Conditions: read-out: ABMF Test M.I.C. A. visc. The source says:
(§1) (d) Still another test protocol is the in vitro antibacterial (ABMF) test which is a recognized standard microdilution susceptibility procedure in Mueller-Hinton broth against gram-positive and gram-negative bacterial test organisms. The procedure is a modification of a state-of-the-art procedure reported in Manual of Clinical Microbiology, Lennette, E. H., ed., by Barry, A. L. and C. Thornsberry at pages 463-474 and by Gavan, T. L. and A. L. Barry at pages 459-462, American Society for Microbiology, Washington, 1980.
(§2) In the test, a given bacterial culture is used to inoculate individaul test wells of microdilution trays containing growth medium and test compound, the latter in a microdilution series: 1000, 333, 111, 37, 12, 4, 1.4, and 0.46 micrograms per milliliter. […] For convenience, values are reported for Escherichia coli, Branhamella catarrhalis, Alcaligenes viscolactis, Streptococcus pneumoniae, and Bacillus cereus

The test system of a further assay is Bacillus cereus. The assay is described as above. Conditions: read-out: ABMF Test M.I.C. B. cere. In kind it is cell-based.
From the text: as §1, §2

Another assay deals with Branhamella catarrhalis. Described as above. In kind it is cell-based. Conditions: Moraxella catarrhalis, read-out: ABMF Test M.I.C. B. cata.
From the text: as §1, §2

The next assay has as its system Escherichia coli. The assay is described as above. In kind it is cell-based. The note with it: read-out: ABMF Test M.I.C. E. coli.
From the text: as §1, §2

The test system of the next assay is Streptococcus pneumoniae. The assay is described as above. In kind it is cell-based. Conditions: read-out: ABMF Test M.I.C. S. pneu.
From the text: as §1, §2

Assay [1] concerns lymphocytic leukemia P388. The assay can be described thus: in vivo lymphocytic leukemia P388 test. The arrangement: species or system CD2 F1 mice. The note with it: Mus musculus, P388, ip, 120 h, intraperitoneally once daily for five days, read-out: P388 in vivo T/C × 100. On the procedure:
Another test protocol is the in vivo lymphocytic leukemia P388 test. The animals used are either male or female CD2 F1 mice, six or seven animals per test group. The tumor transplant is by intraperitoneal injection of dilute ascitic fluid containing cells of lymphocytic leukemia P388. The test compounds are administered intraperitoneally once daily for five consecutive days at various doses following tumor inoculation. The animals are weighed and survivors are recorded on a regular basis for 30 days. A compound is designated "toxic" if, at a given dose, all animals died prior to four days after the first injection of drug. A ratio of survival time for treated (T)/control (C) animals is calculated. A criterion for efficacy is a ratio T/C times 100 greater than or equal to 125. See Cancer Chemotherapy Reports, Part 3, 3, 1 (1972) for a comprehensive discussion of the protocol.

Setting [2] is: Mueller-Hinton broth, 37° C., 16-24 hours.

Take `CCOc1ccc2c(c1)-c1nn(CCN(CC)CC)c3c([N+](=O)[O-])cc([N+](=O)[O-])c(c13)N2.CS(=O)(=O)O.O` [Example 51, 9-Ethoxy-N,N-diethyl-3,5-dinitropyrazolo[3,4,5-kl]acridine-2(6H)-ethanamine, methanesulfonate, hydrate]: in the assay with L1210 cells (L1210, 72 h), the IC50 turned out to be 380 nM. For the same compound, the MIC was below 0.46 µg/mL with Alcaligenes viscolactis; 333 µg/mL with Bacillus cereus; 333 µg/mL in the assay on Branhamella catarrhalis; above 1000 µg/mL in the assay with Escherichia coli; 111 µg/mL with Streptococcus pneumoniae.

Take `CCN(CC)CCn1nc2c3c(c([N+](=O)[O-])ccc31)Nc1ccc(OC)c(Cl)c1-2` [Example 25, 10-Chloro-N,N-diethyl-9-methoxy-5-nitropyrazolo[3,4,5-kl]acridine-2(6Hethanamine, methanesulfonate, hydrate]: the IC50 with L1210 cells (72 h, L1210 cells, three days) was 70 nM. Also, the MIC with Alcaligenes viscolactis (setting [2]), in the assay on Bacillus cereus (setting [2]), in the assay on Branhamella catarrhalis (setting [2]), with Escherichia coli (setting [2]) and in the assay with Streptococcus pneumoniae (setting [2]) was below 0.46 µg/mL each time.

For `CCN(CC)CCOc1ccc2c(c1)-c1nn(CCN(CC)CC)c3ccc([N+](=O)[O-])c(c13)N2` [Example 21], the IC50 in the assay with L1210 cells (72 h, L1210 cells, three days) was found to be 460 nM. The MIC in the assay with Alcaligenes viscolactis (setting [2]) was 4.1 µg/mL (≈ 8.79 µM); in the assay on Bacillus cereus (setting [2]), 37 µg/mL (≈ 79.3 µM); with Branhamella catarrhalis (setting [2]) it was 12.3 µg/mL (≈ 26.4 µM); in the assay on Escherichia coli (setting [2]), 111 µg/mL (≈ 238 µM); in the assay with Streptococcus pneumoniae (setting [2]), 12.3 µg/mL (≈ 26.4 µM).

`CCN(CC)CCn1nc2c3c(c([N+](=O)[O-])cc([N+](=O)[O-])c31)Nc1ccc(O)cc1-2` [Example 49, 2-[2-(Diethylamino)ethyl]-2,6-dihydro-3,5-dinitropyrazolo[3,4,5-kl]acridin-9-ol, methanesulfonate, hemihydrate]: the IC50 in the assay with L1210 cells (L1210, 72 h) worked out at 6.8 nM. The MIC in the assay with Alcaligenes viscolactis, in the assay on Bacillus cereus, with Branhamella catarrhalis, in the assay on Escherichia coli and with Streptococcus pneumoniae was below 0.46 µg/mL each time.

Take `CCN(CC)CCn1nc2c3c(c([N+](=O)[O-])ccc31)Nc1ccc(OC(=O)c3ccccc3)cc1-2` [Example 31, 2-[2-(Diethylamino)ethyl]-2,6-dihydro-5-nitropyrazolo [3,4,5-kl]acridin-9-ol, benzoate (ester), methanesulfonate (1:1) (salt), monohydrate]: the IC50 in the assay with L1210 cells (72 h, L1210 cells, three days) is 3 nM.

As for `Cc1ccc2c(c1)-c1nn(CCNCCO)c3ccc([N+](=O)[O-])c(c13)N2.Cl` [Example 42, 2-[[2-(9-Methyl-5-nitropyrazolo[3,4,5-kl]acridin-2(6H)-yl)ethyl]amino]ethanol, monohydrochloride], the IC50 with L1210 cells (72 h, L1210 cells, three days) was determined as 590 nM. In addition, the MIC with Alcaligenes viscolactis (setting [2]), in the assay on Bacillus cereus (setting [2]), with Branhamella catarrhalis (setting [2]), with Escherichia coli (setting [2]) and in the assay on Streptococcus pneumoniae (setting [2]) was below 0.46 µg/mL in each case.

As to `CN(C)CCCn1nc2c3c(c([N+](=O)[O-])ccc31)Nc1ccc(OC(=O)C(C)(C)C)cc1-2` [Example 48, 2-[3-(Dimethylamino)propyl]-5-nitropyrazolo[3,4,5-kl]acridin-9-ol, 2,2-dimethylpropanoate (ester), methanesulfonate (salt) (1:1)], the IC50 in the assay on L1210 cells (72 h, L1210 cells, three days) is 9.8 nM. The MIC in the assay with Alcaligenes viscolactis (setting [2]) stood at 0.46 µg/mL; in the assay on Bacillus cereus (setting [2]), 333 µg/mL; in the assay on Branhamella catarrhalis (setting [2]) it was 1.4 µg/mL; in the assay on Escherichia coli (setting [2]), 3.7 µg/mL; with Streptococcus pneumoniae (setting [2]), 4.1 µg/mL. Besides, the response vs control in vivo at 0.78 mg/kg in assay [1] (0.78 mg/kg) was found to be 175%. In addition, the response vs control in vivo at 1.56 mg/kg in assay [1] (1.56 mg/kg) was 263%.

Turning to `CCN(CC)CCn1nc2c3c(c([N+](=O)[O-])ccc31)Nc1ccc(OCc3ccc(OC)cc3)cc1-2` [Example 22, N,N-Diethyl-9-[(4-methoxyphenyl)methoxy]-5-nitropyrazolo[3,4,5-kl]acridine-2(6H)-ethanamine, methanesulfonate (salt) (1:1)], the IC50 with L1210 cells (72 h, L1210 cells, three days) stood at 820 nM.

`CCN(CC)CCn1nc2c3c(c([N+](=O)[O-])ccc31)Nc1cc(OC)cc(OC)c1-2.CS(=O)(=O)O.O` [Example 24, N,N-Diethyl-8,10-dimethoxy-5-nitropyrazolo[3,4,5-kl]acridine-2(6H)-ethanamine, methanesulfonate, hydrate (1:1:1)]: the IC50 in the assay with L1210 cells (72 h, L1210 cells, three days) amounted to 490 nM. In addition, the MIC in the assay on Alcaligenes viscolactis (setting [2]) was below 0.46 µg/mL; in the assay with Bacillus cereus (setting [2]) it was below 0.46 µg/mL; in the assay with Branhamella catarrhalis (setting [2]), below 0.46 µg/mL; with Escherichia coli (setting [2]), 4.1 µg/mL; in the assay with Streptococcus pneumoniae (setting [2]), 1.4 µg/mL.

In the case of `COc1ccc2c(c1)-c1nn(CCCN(C)C)c3c([N+](=O)[O-])cc([N+](=O)[O-])c(c13)N2.CS(=O)(=O)O` [Example 55, N,N-Dimethyl-3,5-dinitro-9-methoxypyrazolo[3,4,5-kl]acridine-2(6H)-propanamine, methanesulfonate (1:1)], the IC50 with L1210 cells (L1210, 72 h) amounted to 220 nM. For the same compound, the MIC with Alcaligenes viscolactis, in the assay with Bacillus cereus, in the assay on Branhamella catarrhalis, in the assay with Escherichia coli and in the assay on Streptococcus pneumoniae was below 0.46 µg/mL each time.

For `CCN(CC)CCn1nc2c3c(c([N+](=O)[O-])cc([N+](=O)[O-])c31)Nc1ccc(OCc3ccccc3)cc1-2` [Example 52, N,N-Diethyl-3,5-dinitro-9-(phenylmethoxy)pyrazolo [3,4,5-kl]-2(6H)-ethanamine, methanesulfonate, hemihydrate], in the assay on L1210 cells (L1210, 72 h), the IC50 is 750 nM.

Turning to `CCCCCCCC(=O)Oc1ccc2c(c1)-c1nn(CCN(CC)CC)c3ccc([N+](=O)[O-])c(c13)N2` [Example 30, Octanoic acid,[2-[2-(diethylamino)ethyl]-2,6-dihydro-5-nitropyrazolo[3,4,5-kl]acridin-9-yl]ester, methanesulfonate (1:1), hemihydrate], the IC50 with L1210 cells (72 h, L1210 cells, three days) worked out at 4.3 nM. In addition, the MIC is below 0.46 µg/mL with Alcaligenes viscolactis (setting [2]); 37 µg/mL in the assay on Bacillus cereus (setting [2]); 12.3 µg/mL in the assay with Branhamella catarrhalis (setting [2]); 37 µg/mL with Escherichia coli (setting [2]); below 0.46 µg/mL in the assay with Streptococcus pneumoniae (setting [2]).

On to `CCN(CC)CCn1nc2c3c(c([N+](=O)[O-])cc([N+](=O)[O-])c31)Nc1ccc(OCc3ccc(OC)cc3)cc1-2.CS(=O)(=O)O` [Example 53, N,N-Diethyl-9-[(4-methoxyphenyl)methoxy]-3,5-dinitropyrazolo[3,4,5-kl]acridine-2(6H)-ethanamine, methanesulfonate (1:1)], for which, in the assay on L1210 cells (L1210, 72 h), the IC50 was determined as 6.8 nM. The MIC in the assay on Alcaligenes viscolactis, with Bacillus cereus, with Branhamella catarrhalis, in the assay with Escherichia coli and in the assay on Streptococcus pneumoniae was below 0.46 µg/mL in each case.

Consider `CCN(CC)CCn1nc2c3c(c([N+](=O)[O-])ccc31)Nc1ccc(OC(=O)C(C)(C)C)cc1-2` [Example 28, 2-[2-(Diethylamino)ethyl]-2,6-dihydro-5-nitropyrazolo[3,4,5-kl]acridin-9-ol, 2,2-dimethylpropanoate (ester), methanesulfonate (salt) (1:1)], for which, in the assay on L1210 cells (72 h, L1210 cells, three days), the IC50 was determined as 7.2 nM. Moreover, the response vs control in vivo at 3.12 mg/kg in assay [1] (3.12 mg/kg) stood at 221%. Besides, the response vs control in vivo at 6.25 mg/kg in assay [1] (6.25 mg/kg) was found to be 223%.
